The text below walks through data of patent publication US9498463B2, “Compound obtained from gamboge resin, and medical uses of the same” (priority 2010, dated 2016).

In data set [1] the test system is Human umbilical venal epithelial cell (HUVEC). Description: cells. To be noted: Homo sapiens, HUVEC, read-out: IC50 (50% inhibition concentration). The source says:
(§1) In Vitro Anti-Cancer Test
(§2) The in vitro anti-cancer test was primarily used to detect the effect of a candidate drug on cancer cell proliferation. The working principle involved therein is the ability of viable cells to shift alamarBlue (AbD Serotec, UK) from its originally non-fluorescent oxidized state (non-fluorescent, blue) to a reduced form (fluorescent, red) having fluorescence via metabolic reaction. According to the fluorescent data result generated by the alamarBlue reagent thus obtained, the proliferation of the viable cells and cell activity can be quantified for detection.
(§3) In the in vitro anti-cancer tests, a candidate drug was tested at 5 different concentrations of 0.01, 0.1, 1, 10, and 100 μg/ml, and six human cancer cell lines and a normal human cell line were used (see Table 5).

Data set [2] concerns Human colon adenocarcinoma cell HT-29. In words: cells. Conditions: for IC50: HT-29, read-out: IC50 (50% inhibition concentration); for CC50: HT-29, read-out: LC50 (50% lethal concentration).
From the text: as §1, §2, §3

Data set [3] deals with Human promyelocytic leukemia cell HL-60. In words: cells. To be noted: for IC50: HL-60, read-out: IC50 (50% inhibition concentration); for CC50: HL-60, read-out: LC50 (50% lethal concentration).
From the text: as §1, §2, §3

Data set [4] is described as follows: in vitro.
From the text: as §1, §2, §3

Data set [5] relates to Human lung carcinoma cell A549. Description: cells. To be noted: for IC50: A549, read-out: IC50 (50% inhibition concentration); for CC50: A549, read-out: LC50 (50% lethal concentration).
From the text: as §1, §2, §3

Data set [6] concerns Human hepatocellular carcinoma cell HepG2. Description: cells. To be noted: for IC50: HepG2, read-out: IC50 (50% inhibition concentration); for CC50: HepG2, read-out: LC50 (50% lethal concentration).
From the text: as §1, §2, §3

The test system of data set [7] is Human breast adenocarcinoma cell MCF7. Description: cells. Conditions: Homo sapiens; for IC50: MCF7, read-out: IC50 (50% inhibition concentration); for CC50: MCF7, read-out: LC50 (50% lethal concentration).
From the text: as §1, §2, §3

Data set [8] concerns Human histocytic lymphoma cell U937. Description: cells. Conditions: for IC50: U-937, read-out: IC50 (50% inhibition concentration); for CC50: U-937, read-out: LC50 (50% lethal concentration).
From the text: as §1, §2, §3

In data set [9] the test system is caspases. Conditions: cited from earlier work.

Structures are written as SMILES. Converted amounts (≈) assume the structure as drawn.

With `CC(C)=CCC[C@@]1(C)C=Cc2c(O)c3c(c(CC=C(C)C)c2O1)O[C@]12C(=C[C@@H]4CC1C(C)(C)O[C@]2(C/C=C(/C)C(=O)O)C4=O)C3=O` [Gh-2606, epigambogic acid], the IC50 turned out to be 0.11 µg/mL (≈ 0.175 µM) in data set [1]; 0.39 µg/mL (≈ 0.62 µM) in data set [2]; 0.66 µg/mL (≈ 1.05 µM) in data set [3]; 0.1 µg/mL (≈ 0.159 µM) in data set [5]; 0.38 µg/mL (≈ 0.604 µM) in data set [6]; 1.3 µg/mL (≈ 2.07 µM) in data set [7]. Besides, the IC50 in [8] came to 0.41 µg/mL (≈ 0.652 µM). Moreover, the CC50 in data set [2] was found to be 2 µg/mL (≈ 3.18 µM); in data set [3] it was 2.4 µg/mL (≈ 3.82 µM); in [4], 1.4 µg/mL (≈ 2.23 µM); in [5], 0.31 µg/mL (≈ 0.493 µM); in [6], 3 µg/mL (≈ 4.77 µM); in data set [7], 1.6 µg/mL (≈ 2.54 µM). The CC50 in data set [8] turned out to be 3.1 µg/mL (≈ 4.93 µM).

Consider `CC(C)=CCc1c2c(c(O)c3c1O[C@@]1(C)CCC4C3C1C4(C)C)C(=O)C1=C[C@@H]3CC4C(C)(C)O[C@](C/C=C(/C)C(=O)O)(C3=O)[C@@]14O2` [Gh-2607-1A], for which the IC50 in [1] amounted to 0.43 µg/mL (≈ 0.684 µM); in [2], 0.24 µg/mL (≈ 0.382 µM); in data set [3], 0.49 µg/mL (≈ 0.779 µM); in data set [5] it was 0.19 µg/mL (≈ 0.302 µM); in data set [6], 0.43 µg/mL (≈ 0.684 µM); in data set [7], 0.12 µg/mL (≈ 0.191 µM). Moreover, the IC50 in data set [8] worked out at 0.15 µg/mL (≈ 0.239 µM). In addition, the CC50 in data set [2] came to 0.84 µg/mL (≈ 1.34 µM); in data set [3], 2.6 µg/mL (≈ 4.14 µM); in [4] it was 1.5 µg/mL (≈ 2.39 µM); in [5], 0.45 µg/mL (≈ 0.716 µM); in data set [6] it was 3.9 µg/mL (≈ 6.2 µM); in data set [7] it was 1.5 µg/mL (≈ 2.39 µM). In addition, the CC50 in [8] was found to be 0.37 µg/mL (≈ 0.588 µM).

For `CC(C)=CCc1c2c(c(O)c3c1O[C@]1(C)CCC4C3C1C4(C)C)C(=O)C1=C[C@@H]3CC4C(C)(C)OC(C/C=C(/C)C(=O)O)(C3=O)[C@@]14O2` [Gh-2607-B], the IC50 in data set [1] came to 0.07 µg/mL (≈ 0.111 µM); in data set [2], 0.3 µg/mL (≈ 0.477 µM); in data set [3], 0.13 µg/mL (≈ 0.207 µM); in [5] it was 0.1 µg/mL (≈ 0.159 µM); in [6] it was 0.31 µg/mL (≈ 0.493 µM); in data set [7], 0.1 µg/mL (≈ 0.159 µM). Also, the IC50 in data set [8] is 0.1 µg/mL (≈ 0.159 µM). Besides, the CC50 came out at 1 µg/mL (≈ 1.59 µM) in data set [2]; 3.1 µg/mL (≈ 4.93 µM) in data set [3]; 1.6 µg/mL (≈ 2.54 µM) in data set [4]; 0.33 µg/mL (≈ 0.525 µM) in [5]; 4 µg/mL (≈ 6.36 µM) in data set [6]; 0.68 µg/mL (≈ 1.08 µM) in data set [7]. Besides, the CC50 in [8] came to 0.25 µg/mL (≈ 0.398 µM).

With `CC(C)=CCC[C@]1(C)C[C@H](O)c2c(O)c3c(c(CC=C(C)C)c2O1)O[C@]12C(=C[C@@H]4CC1C(C)(C)O[C@]2(C/C=C(/C)C(=O)O)C4=O)C3=O` [Gh-2641-1, neogambogic acid], the IC50 in data set [1] came out at 0.54 µg/mL (≈ 0.835 µM); in data set [2], 2.6 µg/mL (≈ 4.02 µM); in data set [3], 0.18 µg/mL (≈ 0.278 µM); in data set [5], 0.15 µg/mL (≈ 0.232 µM); in data set [6], 1.7 µg/mL (≈ 2.63 µM); in [7], 0.2 µg/mL (≈ 0.309 µM). Moreover, the IC50 in [8] stood at 0.26 µg/mL (≈ 0.402 µM). Also, the CC50 in [2] worked out at 6.8 µg/mL (≈ 10.5 µM); in [3], 4.5 µg/mL (≈ 6.96 µM); in [4], 4.3 µg/mL (≈ 6.65 µM); in data set [5], 0.22 µg/mL (≈ 0.34 µM); in [6], 4.6 µg/mL (≈ 7.11 µM); in [7] it was 3.5 µg/mL (≈ 5.41 µM). Also, in data set [8], the CC50 came to 1 µg/mL (≈ 1.55 µM).

On to `CC(C)=CCC/C(C)=C/Cc1c(O)c(CC=C(C)C)c2c(c1O)C(=O)C1=C[C@@H]3CC4C(C)(C)O[C@](C/C=C(\C)C(=O)O)(C3=O)[C@@]14O2` [Gh-2642, isogambogenic acid], for which the IC50 in data set [1] was found to be 2.4 µg/mL (≈ 3.8 µM); in data set [2], 12 µg/mL (≈ 19 µM); in data set [3], 9 µg/mL (≈ 14.3 µM); in data set [5], 1.5 µg/mL (≈ 2.38 µM); in data set [6], 11 µg/mL (≈ 17.4 µM); in data set [7], 3 µg/mL (≈ 4.76 µM). Also, the IC50 in data set [8] came to 1.3 µg/mL (≈ 2.06 µM). For the same compound, the CC50 was determined as 42 µg/mL (≈ 66.6 µM) in [2]; 32 µg/mL (≈ 50.7 µM) in [3]; 11 µg/mL (≈ 17.4 µM) in [4]; 4.6 µg/mL (≈ 7.29 µM) in data set [5]; 29 µg/mL (≈ 46 µM) in data set [6]; 10 µg/mL (≈ 15.9 µM) in data set [7]. Further, the CC50 in [8] was determined as 4.1 µg/mL (≈ 6.5 µM).

Regarding `COC(=O)/C(C)=C\CC12OC(C)(C)C3CC(C=C4C(=O)c5c(O)c6c(c(CC=C(C)C)c5OC431)OC(C)(CCC(O)C(C)(C)O)C=C6)C2=O` (centres unmarked) [methyl 37,38-dihydroxy-gambogate], the “activator of caspases and inducer of apoptosis” value in data set [9] was “activator of caspases and an inducer of apoptosis”.
